Converted amounts (≈) assume the structure as drawn. Where two headings read alike, the source gives them in different places.
Tests used:
A. fumigatus AF293 [1] = experiment: Drug synergy (MIC in peptide-supplemented media); type: cell-based, Aspergillus fumigatus; settings: RPMI1640, 37 °C, 48 h, CAS: paradoxical growth; for MIC of antifungal in combination with KKOO: MIC = <20% growth; for MIC of antifungal in combination with KKOO-NH2: MIC = well with <20% growth
How it was run: (§1)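 MIC read after 2 days at 37 °C following CLSI M27 or M38 microdilution in RPMI1640 with yeast cells at 5000 cfu/mL. For combinations, media carried peptide at fixed final concentration alongside control MIC plates, and FIC index was derived.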

Cg FKS2 S663P = experiment: Drug synergy (MIC in peptide-supplemented media); type: cell-based, Candida glabrata; settings: for MIC of antifungal in combination with KKOO / MIC of antifungal in combination with KKOO-NH2: RPMI1640, 37 °C, 48 h
How it was run: as §1

Cg FKS1 S629P = experiment: Drug synergy (MIC in peptide-supplemented media); type: cell-based, Candida glabrata; settings: for MIC of antifungal in combination with KKOO / MIC of antifungal in combination with KKOO-NH2: RPMI1640, 37 °C, 48 h
How it was run: as §1

C. glabrata 2001 = type: cell-based, Candida glabrata; settings: for MIC of antifungal in combination with KKOO / MIC of antifungal in combination with KKOO-NH2: RPMI1640, 37 °C, 48 h
How it was run: as §1

C. albicans SC5413 = type: cell-based, Candida albicans; settings: RPMI1640, 37 °C, 48 h; for MIC of antifungal in combination with KKOO: azole MICs unclear (intermediate phenotype); for MIC of antifungal in combination with KKOO-NH2: azole MICs could not be determined (intermediate phenotype)
How it was run: as §1

A. fumigatus AF293 [2] = experiment: microbe, parasite or virus in culture; type: cell-based, Aspergillus fumigatus; settings: Aspergillus fumigatus, AF293, 48 h
C. neoformans apt1Δ = experiment: microbe, parasite or virus in culture; type: cell-based, Cryptococcus neoformans; settings: Cryptococcus neoformans, 48 h
How it was run: (§2)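 Yeasts were grown overnight in YPD, washed twice in water, taken up in PBS and diluted to 5000 cfu/mL in RPMI. They were then added to plates holding 2-fold serial drug dilutions in RPMI1640 and incubated at 37 °C for 2 days.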

C. neoformans apt3Δ = experiment: microbe, parasite or virus in culture; type: cell-based, Cryptococcus neoformans; settings: Cryptococcus neoformans, 48 h
How it was run: as §2

C. neoformans Crm1^OE = experiment: microbe, parasite or virus in culture; type: cell-based, Cryptococcus neoformans; settings: Cryptococcus neoformans, 48 h
How it was run: as §2

C. neoformans apt4Δ = experiment: microbe, parasite or virus in culture; type: cell-based, Cryptococcus neoformans; settings: Cryptococcus neoformans, 48 h
How it was run: as §2

C. neoformans cdc50Δ = experiment: microbe, parasite or virus in culture; type: cell-based, Cryptococcus neoformans; settings: Cryptococcus neoformans, 48 h
How it was run: as §2

C. auris B11245 = type: cell-based, Candida auris; settings: for MIC of antifungal in combination with KKOO / MIC of antifungal in combination with KKOO-NH2: RPMI1640, 37 °C, 48 h, CAS: paradoxical growth; for MIC of antifungal in combination with KKOO: MIC = <20% growth; for MIC of antifungal in combination with KKOO-NH2: MIC = well with <20% growth
How it was run: as §1

Cn Crm1-oe = experiment: microbe, parasite or virus in culture; type: cell-based, Cryptococcus neoformans; settings: Cryptococcus neoformans, CRM1OE, 48 h, 37 °C
Cn crm1Δ = experiment: microbe, parasite or virus in culture; type: cell-based, Cryptococcus neoformans; settings: Cryptococcus neoformans, 48 h, 37 °C
Cn apt1Δ = experiment: microbe, parasite or virus in culture; type: cell-based, Cryptococcus neoformans; settings: Cryptococcus neoformans, 48 h, 37 °C, 48 h
[3] = in the presence of 2 μg/mL KKOO-NH2

CC[C@H](C)C[C@H](C)CCCCCCCCC(=O)N[C@H]1C[C@@H](O)[C@@H](NCCN)NC(=O)[C@@H]2[C@@H](O)CCN2C(=O)[C@H]([C@H](O)CCN)NC(=O)[C@H]([C@H](O)[C@@H](O)c2ccc(O)cc2)NC(=O)[C@@H]2C[C@@H](O)CN2C(=O)[C@H]([C@@H](C)O)NC1=O [CAS, caspofungin]
MIC of antifungal in combination with KKOO (A. fumigatus AF293 [1]; +0 μg/mL KKOO (control)): 0.125 µg/mL
MIC of antifungal in combination with KKOO-NH2 (A. fumigatus AF293 [1]; +0 μg/mL KKOO-NH2 (control)): 0.125 µg/mL
MIC of antifungal in combination with KKOO-NH2 (A. fumigatus AF293 [1]; +1 μg/mL KKOO-NH2): 0.031 µg/mL
MIC of antifungal in combination with KKOO (A. fumigatus AF293 [1]; +1 μg/mL KKOO): 0.062 µg/mL
MIC of antifungal in combination with KKOO-NH2 (A. fumigatus AF293 [1]; +2 μg/mL KKOO-NH2): 0.031 µg/mL
MIC of antifungal in combination with KKOO (A. fumigatus AF293 [1]; +2 μg/mL KKOO): 0.031 µg/mL
MIC of antifungal in combination with KKOO-NH2 (A. fumigatus AF293 [1]; +4 μg/mL KKOO-NH2): 0.031 µg/mL
MIC of antifungal in combination with KKOO (A. fumigatus AF293 [1]; +4 μg/mL KKOO): 0.031 µg/mL
MIC of antifungal in combination with KKOO-NH2 (A. fumigatus AF293 [1]; +8 μg/mL KKOO-NH2): 0.031 µg/mL
MIC of antifungal in combination with KKOO (Cg FKS2 S663P; +0 μg/mL KKOO (control)): 4 µg/mL
MIC of antifungal in combination with KKOO-NH2 (Cg FKS2 S663P; +0 μg/mL KKOO-NH2 (control)): 4 µg/mL
MIC of antifungal in combination with KKOO-NH2 (Cg FKS2 S663P; +1 μg/mL KKOO-NH2): 2 µg/mL
MIC of antifungal in combination with KKOO (Cg FKS2 S663P; +1 μg/mL KKOO): 2 µg/mL
MIC of antifungal in combination with KKOO-NH2 (Cg FKS2 S663P; +2 μg/mL KKOO-NH2): 1 µg/mL
MIC of antifungal in combination with KKOO (Cg FKS2 S663P; +2 μg/mL KKOO): 2 µg/mL
MIC of antifungal in combination with KKOO-NH2 (Cg FKS2 S663P; +4 μg/mL KKOO-NH2): 1 µg/mL
MIC of antifungal in combination with KKOO (Cg FKS2 S663P; +4 μg/mL KKOO): 1 µg/mL
reduction of MIC of antifungal (Cg FKS2 S663P; [3]): 4 fold
MIC of antifungal in combination with KKOO (Cg FKS1 S629P; +0 μg/mL KKOO (control)): 1 µg/mL
MIC of antifungal in combination with KKOO-NH2 (Cg FKS1 S629P; +0 μg/mL KKOO-NH2 (control)): 1 µg/mL
MIC of antifungal in combination with KKOO-NH2 (Cg FKS1 S629P; +1 μg/mL KKOO-NH2): 0.5 µg/mL
MIC of antifungal in combination with KKOO (Cg FKS1 S629P; +1 μg/mL KKOO): 0.5 µg/mL
MIC of antifungal in combination with KKOO-NH2 (Cg FKS1 S629P; +2 μg/mL KKOO-NH2): 0.062 µg/mL
MIC of antifungal in combination with KKOO (Cg FKS1 S629P; +2 μg/mL KKOO): 0.125 µg/mL
MIC of antifungal in combination with KKOO-NH2 (Cg FKS1 S629P; +4 μg/mL KKOO-NH2): 0.004 µg/mL
MIC of antifungal in combination with KKOO (Cg FKS1 S629P; +4 μg/mL KKOO): 0.008 µg/mL
reduction of MIC of antifungal (Cg FKS1 S629P; [3]): 16 fold
MIC of antifungal in combination with KKOO (C. glabrata 2001; +0 μg/mL KKOO (control)): 0.5 µg/mL
MIC of antifungal in combination with KKOO-NH2 (C. glabrata 2001; +0 μg/mL KKOO-NH2 (control)): 0.5 µg/mL
MIC of antifungal in combination with KKOO-NH2 (C. glabrata 2001; +1 μg/mL KKOO-NH2): 0.5 µg/mL
MIC of antifungal in combination with KKOO (C. glabrata 2001; +1 μg/mL KKOO): 0.5 µg/mL
MIC of antifungal in combination with KKOO-NH2 (C. glabrata 2001; +2 μg/mL KKOO-NH2): 0.125 µg/mL
MIC of antifungal in combination with KKOO (C. glabrata 2001; +2 μg/mL KKOO): 0.25 µg/mL
MIC of antifungal in combination with KKOO-NH2 (C. glabrata 2001; +4 μg/mL KKOO-NH2): 0.004 µg/mL
MIC of antifungal in combination with KKOO (C. glabrata 2001; +4 μg/mL KKOO): 0.016 µg/mL
MIC of antifungal in combination with KKOO (C. glabrata 2001; +8 μg/mL KKOO): 0.556 µg/mL
reduction of MIC of antifungal (C. glabrata 2001; [3]): 4 fold
MIC of antifungal in combination with KKOO (C. albicans SC5413; +0 μg/mL KKOO (control)): 0.25 µg/mL
MIC of antifungal in combination with KKOO-NH2 (C. albicans SC5413; +0 μg/mL KKOO-NH2 (control)): 0.25 µg/mL
MIC of antifungal in combination with KKOO-NH2 (C. albicans SC5413; +1 μg/mL KKOO-NH2): 0.5 µg/mL
MIC of antifungal in combination with KKOO (C. albicans SC5413; +1 μg/mL KKOO): 0.5 µg/mL
MIC of antifungal in combination with KKOO-NH2 (C. albicans SC5413; +2 μg/mL KKOO-NH2): 0.062 µg/mL
MIC of antifungal in combination with KKOO (C. albicans SC5413; +2 μg/mL KKOO): 0.125 µg/mL
MIC of antifungal in combination with KKOO-NH2 (C. albicans SC5413; +4 μg/mL KKOO-NH2): 0.008 µg/mL
MIC of antifungal in combination with KKOO (C. albicans SC5413; +4 μg/mL KKOO): 0.556 µg/mL
MIC of antifungal in combination with KKOO (C. albicans SC5413; +8 μg/mL KKOO): 0.008 µg/mL
MIC (A. fumigatus AF293 [2]): 0.125 µg/mL (≈ 0.114 µM)
MIC (C. neoformans apt1Δ): 8 µg/mL (≈ 7.32 µM)
MIC (C. neoformans apt3Δ): 16 µg/mL (≈ 14.6 µM)
MIC (C. neoformans Crm1^OE): 16 µg/mL (≈ 14.6 µM)
MIC (C. neoformans apt4Δ): 16 µg/mL (≈ 14.6 µM)
MIC (C. neoformans cdc50Δ): 4 µg/mL (≈ 3.66 µM)
MIC of antifungal in combination with KKOO (C. auris B11245; +0 μg/mL KKOO (control)): 1 µg/mL
MIC of antifungal in combination with KKOO-NH2 (C. auris B11245; +0 μg/mL KKOO-NH2 (control)): 1 µg/mL
MIC of antifungal in combination with KKOO-NH2 (C. auris B11245; +1 μg/mL KKOO-NH2): 0.5 µg/mL
MIC of antifungal in combination with KKOO (C. auris B11245; +1 μg/mL KKOO): 1 µg/mL
MIC of antifungal in combination with KKOO-NH2 (C. auris B11245; +2 μg/mL KKOO-NH2): 0.125 µg/mL
MIC of antifungal in combination with KKOO (C. auris B11245; +2 μg/mL KKOO): 0.25 µg/mL
MIC of antifungal in combination with KKOO-NH2 (C. auris B11245; +4 μg/mL KKOO-NH2): 0.031 µg/mL
MIC of antifungal in combination with KKOO (C. auris B11245; +4 μg/mL KKOO): 0.031 µg/mL
reduction of MIC of antifungal (C. auris B11245; in the presence of 2 μg/mL KKOO-NH2, 48 h): 8 fold
MIC (Cn Crm1-oe; YPD + 0 mM Ca2+): 8 µg/mL
MIC (Cn Crm1-oe; YPD + 2.5 mM Ca2+): 32 µg/mL
MIC (Cn Crm1-oe; YPD + 5 mM Ca2+): 32 µg/mL
MIC (Cn Crm1-oe; YPD + 10 mM Ca2+): 128 µg/mL
MIC (Cn Crm1-oe; YPD + 20 mM Ca2+): 128 µg/mL
MIC (Cn crm1Δ; YPD + 0 mM Ca2+): 8 µg/mL
MIC (Cn crm1Δ; YPD + 2.5 mM Ca2+): 32 µg/mL
MIC (Cn crm1Δ; YPD + 5 mM Ca2+): 32 µg/mL
MIC (Cn crm1Δ; YPD + 10 mM Ca2+): 64 µg/mL
MIC (Cn crm1Δ; YPD + 20 mM Ca2+): > 128 µg/mL
MIC (Cn apt1Δ; YPD + 0 mM Ca2+): 8 µg/mL
MIC (Cn apt1Δ; YPD + 2.5 mM Ca2+): 16 µg/mL
MIC (Cn apt1Δ; YPD + 5 mM Ca2+): 32 µg/mL
MIC (Cn apt1Δ; YPD + 10 mM Ca2+): 32 µg/mL
MIC (Cn apt1Δ; YPD + 20 mM Ca2+): 64 µg/mL

— article PMC11555678, “Improved Broad Spectrum Antifungal Drug Synergies with Cryptomycin, a Cdc50-Inspired Antifungal Peptide” (ACS Infectious Diseases, 2024)
